From PubChem BioAssay (NCI)
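1) Cells in 96-well plates. 2) Compound, 48 h, 5 concentrations. 3) Linear interpolation between surrounding doses. 4) Unreached endpoint = highest concentration. Here, GI50 denotes the concentration required for 50% inhibition of growth. TGI marks complete inhibition of growth.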

How the values were obtained:
Assay in all cases: growth of human tumour cells (NCI), 48 h
786-0 renal = test system: 786-0 renal
A498 renal = test system: A498 renal
A549 NSCLC = test system: A549 NSCLC
ACHN renal = test system: ACHN renal
BT-549 breast = test system: BT-549 breast
CAKI-1 renal = test system: CAKI-1 renal
CCRF-CEM leukemia = test system: CCRF-CEM leukemia
COLO 205 colon = test system: COLO 205 colon
DU-145 prostate = test system: DU-145 prostate
EKVX NSCLC = test system: EKVX NSCLC
HCT-116 colon = test system: HCT-116 colon
HCT-15 colon = test system: HCT-15 colon
HL-60(TB) leukemia = test system: HL-60(TB) leukemia
HOP-62 NSCLC = test system: HOP-62 NSCLC
HOP-92 NSCLC = test system: HOP-92 NSCLC
HS 578T breast = test system: HS 578T breast
HT29 colon = test system: HT29 colon
IGROV1 ovarian = test system: IGROV1 ovarian
K-562 leukemia = test system: K-562 leukemia
KM12 colon = test system: KM12 colon
LOX IMVI melanoma = test system: LOX IMVI melanoma
M14 melanoma = test system: M14 melanoma
MALME-3M melanoma = test system: MALME-3M melanoma
MCF7 breast = test system: MCF7 breast
MDA-MB-231 breast = test system: MDA-MB-231 breast
MDA-MB-435 = test system: MDA-MB-435
MOLT-4 leukemia = test system: MOLT-4 leukemia
NCI-H226 lung = test system: NCI-H226 lung
NCI-H23 lung = test system: NCI-H23 lung
NCI-H460 lung = test system: NCI-H460 lung
NCI-H522 lung = test system: NCI-H522 lung
NCI/ADR-RES ovarian = test system: NCI/ADR-RES ovarian
OVCAR-3 ovarian = test system: OVCAR-3 ovarian
OVCAR-4 ovarian = test system: OVCAR-4 ovarian
OVCAR-5 ovarian = test system: OVCAR-5 ovarian
OVCAR-8 ovarian = test system: OVCAR-8 ovarian
PC-3 prostate = test system: PC-3 prostate
RPMI-8226 leukemia = test system: RPMI-8226 leukemia
RXF 393 renal = test system: RXF 393 renal
SF-268 CNS = test system: SF-268 CNS
SF-295 CNS = test system: SF-295 CNS
SF-539 CNS = test system: SF-539 CNS
SK-MEL-2 melanoma = test system: SK-MEL-2 melanoma
SK-MEL-28 melanoma = test system: SK-MEL-28 melanoma
SK-MEL-5 melanoma = test system: SK-MEL-5 melanoma
SK-OV-3 ovarian = test system: SK-OV-3 ovarian
SN12C renal = test system: SN12C renal
SNB-19 CNS = test system: SNB-19 CNS
SNB-75 CNS = test system: SNB-75 CNS
SR leukemia = test system: SR leukemia
SW-620 colon = test system: SW-620 colon
T-47D breast = test system: T-47D breast
TK-10 renal = test system: TK-10 renal
U251 CNS = test system: U251 CNS
UACC-257 melanoma = test system: UACC-257 melanoma
UACC-62 melanoma = test system: UACC-62 melanoma
UO-31 renal = test system: UO-31 renal

NCCNC1=CC(=O)c2nc3ccccc3c3ccnc1c23
GI50 (786-0 renal): 2.45 µM
TGI (786-0 renal): > 29.2 µM
GI50 (A498 renal): 9.55 µM
TGI (A498 renal): > 100 µM
GI50 (A549 NSCLC): 3.26 µM
TGI (A549 NSCLC): > 100 µM
GI50 (ACHN renal): 1.91 µM
TGI (ACHN renal): 19.6 µM
GI50 (BT-549 breast): 4.09 µM
TGI (BT-549 breast): 20.6 µM
GI50 (CAKI-1 renal): 0.534 µM
TGI (CAKI-1 renal): 2.96 µM
GI50 (CCRF-CEM leukemia): 2.53 µM
TGI (CCRF-CEM leukemia): > 50.7 µM
GI50 (COLO 205 colon): 8.72 µM
TGI (COLO 205 colon): 29 µM
GI50 (DU-145 prostate): 2.11 µM
TGI (DU-145 prostate): 29.5 µM
GI50 (EKVX NSCLC): 16.7 µM
TGI (EKVX NSCLC): 53.5 µM
GI50 (HCT-116 colon): 2.3 µM
TGI (HCT-116 colon): 14.8 µM
GI50 (HCT-15 colon): 1.4 µM
TGI (HCT-15 colon): > 49.2 µM
GI50 (HL-60(TB) leukemia): 3.78 µM
TGI (HL-60(TB) leukemia): > 35.4 µM
GI50 (HOP-62 NSCLC): 0.362 µM
TGI (HOP-62 NSCLC): 6.41 µM
GI50 (HOP-92 NSCLC): 16.4 µM
TGI (HOP-92 NSCLC): > 43.8 µM
GI50 (HS 578T breast): 2.12 µM
TGI (HS 578T breast): > 23.5 µM
GI50 (HT29 colon): 22.6 µM
TGI (HT29 colon): > 73.6 µM
GI50 (IGROV1 ovarian): 1.58 µM
TGI (IGROV1 ovarian): 10.6 µM
GI50 (K-562 leukemia): 1.4 µM
TGI (K-562 leukemia): > 24.3 µM
GI50 (KM12 colon): 3.67 µM
TGI (KM12 colon): 38.8 µM
GI50 (LOX IMVI melanoma): 3.46 µM
TGI (LOX IMVI melanoma): 37.9 µM
GI50 (M14 melanoma): 1.48 µM
TGI (M14 melanoma): 4.75 µM
GI50 (MALME-3M melanoma): 2.89 µM
TGI (MALME-3M melanoma): 13.4 µM
GI50 (MCF7 breast): 4.55 µM
TGI (MCF7 breast): > 50.1 µM
GI50 (MDA-MB-231 breast): 9.02 µM
TGI (MDA-MB-231 breast): 41.9 µM
GI50 (MDA-MB-435): 1.42 µM
TGI (MDA-MB-435): 7.62 µM
GI50 (MOLT-4 leukemia): 3.39 µM
TGI (MOLT-4 leukemia): > 36.9 µM
GI50 (NCI-H226 lung): 2.08 µM
TGI (NCI-H226 lung): 20.1 µM
GI50 (NCI-H23 lung): 1.24 µM
TGI (NCI-H23 lung): 3.9 µM
GI50 (NCI-H460 lung): 0.732 µM
TGI (NCI-H460 lung): 5.56 µM
GI50 (NCI-H522 lung): 1.53 µM
TGI (NCI-H522 lung): 4.4 µM
GI50 (NCI/ADR-RES ovarian): 3.13 µM
TGI (NCI/ADR-RES ovarian): 24.9 µM
GI50 (OVCAR-3 ovarian): 2.63 µM
TGI (OVCAR-3 ovarian): 11.8 µM
GI50 (OVCAR-4 ovarian): 6.47 µM
TGI (OVCAR-4 ovarian): > 47.8 µM
GI50 (OVCAR-5 ovarian): 7.23 µM
TGI (OVCAR-5 ovarian): 40.3 µM
GI50 (OVCAR-8 ovarian): 3.83 µM
TGI (OVCAR-8 ovarian): > 100 µM
GI50 (PC-3 prostate): 4.09 µM
TGI (PC-3 prostate): 53.4 µM
GI50 (RPMI-8226 leukemia): 2.01 µM
TGI (RPMI-8226 leukemia): > 40.7 µM
GI50 (RXF 393 renal): 3.97 µM
TGI (RXF 393 renal): 55.7 µM
GI50 (SF-268 CNS): 3.63 µM
TGI (SF-268 CNS): 42.8 µM
GI50 (SF-295 CNS): 1.73 µM
TGI (SF-295 CNS): 7.31 µM
GI50 (SF-539 CNS): 1.53 µM
TGI (SF-539 CNS): 4.27 µM
GI50 (SK-MEL-2 melanoma): 3.05 µM
TGI (SK-MEL-2 melanoma): 29.6 µM
GI50 (SK-MEL-28 melanoma): 4.27 µM
TGI (SK-MEL-28 melanoma): > 80.5 µM
GI50 (SK-MEL-5 melanoma): 1.59 µM
TGI (SK-MEL-5 melanoma): 4.19 µM
GI50 (SK-OV-3 ovarian): 3.69 µM
TGI (SK-OV-3 ovarian): > 65.2 µM
GI50 (SN12C renal): 1.97 µM
TGI (SN12C renal): 14.4 µM
GI50 (SNB-19 CNS): 1.79 µM
TGI (SNB-19 CNS): 8.33 µM
GI50 (SNB-75 CNS): 3.98 µM
TGI (SNB-75 CNS): > 29 µM
GI50 (SR leukemia): 0.374 µM
GI50 (SW-620 colon): 1.75 µM
TGI (SW-620 colon): 15.8 µM
GI50 (T-47D breast): 3.75 µM
TGI (T-47D breast): 20.3 µM
GI50 (TK-10 renal): 25.9 µM
TGI (TK-10 renal): > 100 µM
GI50 (U251 CNS): 2.3 µM
TGI (U251 CNS): 22.7 µM
GI50 (UACC-257 melanoma): 3.34 µM
TGI (UACC-257 melanoma): > 36.7 µM
GI50 (UACC-62 melanoma): 1.06 µM
TGI (UACC-62 melanoma): 3.3 µM
GI50 (UO-31 renal): 1.51 µM
TGI (UO-31 renal): > 20.5 µM
